# Assays:
# MCF-7 cells = assay: Anti-tumor assay, MCF-7 tumors in athymic CD-1 mice; format: in vivo
# Method: To test this possibility, we followed the procedure of Kurokawa et al. Female athymic outbred CD-1 mice were implanted with a slow release estradiol tablet and injected intra-fat-pad (i.f.p.) in the lower right abdomen 3×10^6 viable MCF-7 cells (see Materials and Methods). Twelve days later, when the tumors became palpable, mice were randomly allocated into two groups, each with six mice. The control group was injected with PBS i.p. and the treatment group was injected with 0.5 mg 1,3cPP dissolved in PBS i.p. in the lower left abdomen on day 1,3,6, and 8. Tumor size was then measured 2-3 times a week. In the control group, the tumors grew continuously and reached an average size of >1250 mm^3. The origin of the large variation in tumor size was due to one mouse with a relatively small tumor in this group.
# Female athymic outbred CD-1 mice 12 weeks of age were obtained from the animal breeding center of our Institute. Animals were maintained and treated according to “Principles of laboratory animal care”, (NIH publication no. 85-23) under the supervision of the Council for Experiments on animals, of our Institute. Mice were anesthetized and implanted subcutaneously with a 0.25 mg, 21-day release 17β-estradiol pellet (Innovative Research of America, Sarasota, Fla.) in the dorsal space and injected intra-fat-pad (i.f.p.) in the lower right abdomen with 3×10^6 MCF-7 cells. Twelve days later, when the tumors became palpable, mice were randomly allocated into two groups, each with 6 mice. The control group was injected with PBS and the treatment group was injected with 0.5 mg 1,3cPP in PBS i.p. in the lower left abdomen on day 1,3,6, and 8. Tumor diameters were serially measured with calipers assuming a hemiellipsoid shape, where volume=[…]×(length/2)×(width/2)×(thickness/2).
# PR mRNA in MCF-7 cells = assay: Quantitative RT-PCR of PR mRNA in MCF-7 cells; format: cell-based, human; details: 20 μM
# Method: (§1) It should however be understood that the augmented expression of ER-α and PR presented in FIGS. 1-3 could have in principle originated from increase in either transcription or translation associated with the respective steroid receptor genes. Therefore the effects of long term incubation with 1,3cPP on the respective ER-α and PR mRNA levels were examined. Quantitative RT-PCR was carried out with a Light Cycler as described. […] In contrast, only 20 μM 1,3-cPP were required to induce 7-fold increase in the ER-α mRNA in T47D clone 8 cells (FIG. 4D). […]
# (§2) RT-PCR was carried out on a programmable thermal controller instrument according to standard protocols, where the annealing temperatures were 58° C. for ER-α and 56° C. for PR. […] The PCR products were diluted and used to build a standard curve for the quantitative PCR which was carried out in a Light Cycler instrument (Roche Diagnostics, Mannheim, Germany). […] For each control and test sample, the amount of the constitutively expressed house keeping enzyme glyceraldehyde-3-phosphate dehydrogenase (GAPDH) mRNA was quantified by using appropriate primers and the quantity of ER-α and PR mRNA were normalized to the quantity of GAPDH mRNA in each sample. The relative amounts of ER-α and PR mRNA were expressed as normalized 1,3cPP treatment values divided by the normalized control values.
# [1] = tested on: ER-α mRNA in T47D clone 8 cells; assay: Quantitative RT-PCR of ER-α mRNA in T47D clone 8 cells; format: cell-based, human; details: 20 μM, 6 days (FIG. 4D)
# Method: as §1, §2
# [2] = tested on: T47D human breast cancer cells (clone 11); assay: Proliferation assay ([3H]thymidine uptake); format: cell-based; details: T47D clone 11, 50 μM
# Method: In order to validate such an observation, T47D cells were incubated with varying concentration of 1,3-cPP in the range of 1-50 μM in a standard 5 day [3H]thymidine uptake assay.
# T47D cells (clone 11;ER^+PR^+) were plated in 96 well plates in sets of 6, each containing 8×10^4 cells in a final volume of 200 μl per well. 1,3-cPP was added to the cultures to form a final concentration of 1-50 μM. Plates were incubated at 37° C. over the course of 5 days, where on each day, one plate was pulsed with [^3H]thymidine (5.7 Ci/mmol, Sigma, St. Louis, Mo.) overnight for the last 16 hours of the assay, and then frozen. The plates were harvested (Packard micromate 196 harvester, Merriden, Conn.) and radioactivity was scored on a 96 well plate reader (Packard 96, merriden, Conn.).
# ER-α mRNA in MCF-7 cells = assay: Quantitative RT-PCR of ER-α mRNA in MCF-7 cells; format: cell-based, human
# Method: It should however be understood that the augmented expression of ER-α and PR presented in FIGS. 1-3 could have in principle originated from increase in either transcription or translation associated with the respective steroid receptor genes. Therefore the effects of long term incubation with 1,3cPP on the respective ER-α and PR mRNA levels were examined. Quantitative RT-PCR was carried out with a Light Cycler as described. […] In contrast, only 20 μM 1,3-cPP were required to induce 7-fold increase in the ER-α mRNA in T47D clone 8 cells (FIG. 4D). The analogous data for PR are depicted for MCF-7 cells in FIGS. 5A-B where at 20 μM, there was a 3 fold increase in the normalized PR mRNA expression on the 8th day. This increase receded to about 1.5-fold by the 11th day.
# MCF-7 and T47D cells were cultured and treated as described above. Total cellular RNA was extracted with TRI reagent according to the manufacturer's instructions (Molecular Research Center, Inc. Cincinnati, Ohio). Reverse transcription (RT) was performed in a total reaction mixture of 20 μl with 1-5 μg RNA by first heating to 65° C. for 5 min in the presence of 25 μg/ml Oligo (dT)12-18, and 0.5 mM deoxynucleotide triphosphates (dNTP). The RT reaction mixture was then quickly cooled on ice. […]
# as §2
# [3] = 0.5 mg i.p. on day 1,3,6 and 8, athymic CD-1 mice
structure (smiles),measurement,setting,value
"O=P1(O)OCCCO1 [1,3-cPP, 1,3-cyclic propanediol phosphate]","changes in appearance, body weight or behavior upon injection",MCF-7 cells; [3],"no changes in appearance, body weight or behavior"
same,toxic effects during the course of the experiment,MCF-7 cells; [3],No observable toxic effects
same,"tumor size, treatment versus control group","MCF-7 cells; 0.5 mg i.p. on day 1,3,6 and 8, day 36 (P=0.032) and day 43 (P=0.032), MCF-7 tumors in athymic CD-1 mice",significant difference
same,increase in the normalized PR mRNA expression,PR mRNA in MCF-7 cells; 8th day,3 fold
same,increase in the normalized PR mRNA expression,PR mRNA in MCF-7 cells; 11th day,about 1.5 fold
same,increase in the ER-α mRNA,[1],7 fold
same,"proliferation ([3H]thymidine uptake), persistence of effect",[2]; after the third day of 5 day assay,effect was lost after the third day
same,proliferation ([3H]thymidine uptake) compared to control cultures,"[2]; first 3 days of incubation, P values 0.0370, 0.0192 and 0.0238 on days 1-3",significantly inhibited proliferation
same,increase in the normalized ER-α mRNA transcription,"ER-α mRNA in MCF-7 cells; 50 μM, 11th day",10 fold
same,increase in the normalized ER-α mRNA transcription,"ER-α mRNA in MCF-7 cells; 100 μM, day 6, normalized to GAPDH, relative to control",6 fold
same,increase in the normalized ER-α mRNA transcription,"ER-α mRNA in MCF-7 cells; 100 μM, day 14, normalized to GAPDH, relative to control",6 fold

# Source: patent US20060014726A1, “Derivatives of cyclic1, 3- propanediol phosphate and their action in differentiation therapy” (priority 2002, published 2006)
